Measured values published in PubChem BioAssay AID623909 (Vanderbilt High Throughput Screening Facility, 2012).
The source made the active and inactive calls. No rule for the calls is given here.

Molecular target: G protein-activated inward rectifier potassium channel 2 (Homo sapiens) + G protein-activated inward rectifier potassium channel 1 (Homo sapiens) (UniProt P48051+P48549)
Assay: GIRK1/2 channel activators, dose response, cell-based, thallium flux, HEK-293 (AID 623909)
Details: HEK-293 hGIRK1/2, thallium flux FluoZin-2 fluorescence; for activation, % of glutamate: at 90 µM (top of the series)

G protein-activated inward rectifier potassium channel 2 (Homo sapiens) + G protein-activated inward rectifier potassium channel 1 (Homo sapiens), sequence (P48051 whole entry, looked up): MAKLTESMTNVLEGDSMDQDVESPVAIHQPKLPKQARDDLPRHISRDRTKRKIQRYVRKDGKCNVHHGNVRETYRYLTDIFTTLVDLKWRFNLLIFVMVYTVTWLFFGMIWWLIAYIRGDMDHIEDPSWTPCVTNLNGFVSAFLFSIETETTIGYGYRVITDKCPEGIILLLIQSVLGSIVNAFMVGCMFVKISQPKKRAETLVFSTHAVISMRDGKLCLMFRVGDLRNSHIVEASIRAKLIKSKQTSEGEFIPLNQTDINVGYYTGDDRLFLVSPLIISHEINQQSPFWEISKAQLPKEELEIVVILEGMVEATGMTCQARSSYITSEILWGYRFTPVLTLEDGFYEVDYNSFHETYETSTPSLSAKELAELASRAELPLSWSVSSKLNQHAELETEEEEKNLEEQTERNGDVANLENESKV
G protein-activated inward rectifier potassium channel 2 (Homo sapiens) + G protein-activated inward rectifier potassium channel 1 (Homo sapiens), sequence (P48549 whole entry, looked up): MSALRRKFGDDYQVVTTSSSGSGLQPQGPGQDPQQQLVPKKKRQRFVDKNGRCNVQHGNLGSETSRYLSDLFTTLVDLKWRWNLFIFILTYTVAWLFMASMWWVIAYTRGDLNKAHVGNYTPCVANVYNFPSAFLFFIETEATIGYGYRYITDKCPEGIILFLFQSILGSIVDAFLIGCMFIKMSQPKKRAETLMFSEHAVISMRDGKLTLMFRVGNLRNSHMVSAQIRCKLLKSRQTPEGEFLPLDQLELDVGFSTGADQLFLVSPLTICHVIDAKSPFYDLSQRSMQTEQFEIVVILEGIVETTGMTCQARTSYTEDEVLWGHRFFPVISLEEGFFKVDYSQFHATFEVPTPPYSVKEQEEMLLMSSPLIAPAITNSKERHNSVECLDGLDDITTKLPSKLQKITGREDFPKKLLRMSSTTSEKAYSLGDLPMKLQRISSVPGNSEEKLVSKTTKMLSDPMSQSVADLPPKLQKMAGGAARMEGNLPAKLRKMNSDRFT

Row | SMILES | EC50 [µM] | activation, % of glutamate
1 | Cc1ccc(CC(=O)N2CCN(c3cccc(C(F)(F)F)c3)CC2)cc1 | 5.18 | 
2 | Cc1ccc(-c2nnn(CC(=O)NC3CC4CCC3C4)n2)cc1 (configuration not stated) | 0.317 | 
3 | O=C(Nc1ccccc1)Nc1nccs1 | 30 | 
4 | Cc1cc(C)n(-c2ccc(C(=O)OCC(=O)Nc3ccc(Cl)c(S(=O)(=O)N(C)C)c3)cc2)n1 | 8.94 | 
5 | CC(C)=CCC(C)(C)CNC(=O)NC1CCCCC1 | 30 | 
6 | COc1ccc(C(=O)NC(=S)NC(C)C)cc1Br | 2.25 | 
7 | COc1ccc(C)cc1NC(=O)NCCC1=CCCCC1 | 3.94 | 
8 | CCOC(=O)c1ccc(NC(=O)Nc2ccc(OC)c(OC)c2)cc1 | 5.54 | 
9 | CC1CCCN(Cc2cccc(Oc3ccccc3)c2)C1 (configuration not stated) | 30 | 
10 | CSc1ccccc1NC(=O)Nc1ccccc1 | 12.8 | 
11 | CC(/C=N/NC(=O)c1c(Br)cnn1C)=C\c1ccccc1 | 3.54 | 
12 | CCOc1ccccc1Nc1nnc(Cc2ccccc2Cl)c(=O)[nH]1 | 0.67 | 
13 | CCOC(=O)C1=C(CC)Nc2ccccc2N=C1NC(=O)Nc1ccc(Cl)c(Cl)c1 | 3.62 | 
14 | Fc1ccc(CSc2nc3ccccc3[nH]2)c2ccccc12 | 3.6 | 
15 | COc1ccc(NC(=O)Nc2ccccc2C(=O)N2CCCC2)cc1 | 30 | 
16 | O=C(Nc1cccc(Cl)c1)Nc1nccs1 | 1.95 | 
17 | COc1ccc(Nc2nnc(Cc3ccccc3)c(=O)[nH]2)c(OC)c1 | 30 | 
18 | COC(=O)[C@H](Cc1ccccc1)NC(=O)NCCC1=CCCCC1 | 30 | 
19 | S=C(Nc1cccc(Cl)c1)Nc1ccccc1Oc1ccccc1 | 8.09 | 
20 | CCSc1nnc(NC(=O)NC(CC)(C(F)(F)F)C(F)(F)F)s1 | 30 | 
21 | CCCCc1ccc(NC(=S)Nc2ccc(Cl)c(S(=O)(=O)N(C)C)c2)cc1 | 4 | 
22 | CSc1cccc(NC(=O)CN(c2ccccc2)S(=O)(=O)N(C)C)c1 | 30 | 
23 | CCc1ccc(CNCCNCC(C)O)cc1 (configuration not stated) | 2.36 | 

Row | SMILES | EC50 [µM] | activation, % of glutamate
24 | O=C(Nc1ccc(Cl)cc1)NC1CCCCC1Cc1ccco1 (configuration not stated) | 4.14 | 
25 | CCCCc1ccc(NC(=S)Nc2cccnc2)cc1 | 8.96 | 
26 | COc1ccc(C)cc1NC(=O)Nc1ccccc1 | 5.96 | 
27 | CSc1cccc(NC(=O)COc2ccccc2)c1 | 30 | 
28 | CCOc1ccc(NC(=O)Nc2cccs2)cc1 |  | inactive
29 | C/C(CC(=O)NCC(C)C)=N\NC(=O)COc1cc(C)c(Br)cc1Br | 16.8 | 
30 | CCCN(CC1CC1)C(=S)Nc1ccc(Oc2ccccc2)cc1 | 3.54 | 
31 | Cc1cccc(NC(=O)NC(C)CCc2ccccc2)c1 (configuration not stated) | 30 | 
32 | Cc1nn(CC(=O)Nc2ccc(Cl)c(S(=O)(=O)N(C)C)c2)c(C)c1[N+](=O)[O-] | 30 | 
33 | COc1ccc(NC(=O)Nc2cc(C)ccc2OC)cc1 | 2.05 | 
34 | CN(C)S(=O)(=O)c1cccc(NC(=O)Cc2ccc(Cl)cc2)c1 | 9.88 | 
35 | COc1ccccc1Nc1ccc(Nc2ccccc2OC)nn1 | 3.41 | 
36 | Cc1ccccc1OCC(=O)N/N=C/c1cccn1C | 30 | 
37 | CCOc1ccc(OCCSc2nc3ccccc3[nH]2)cc1 | 1.67 | 
38 | COc1cccc(NC(=O)Nc2cccs2)c1 | 7.33 | 
39 | CCOC(=O)Cc1csc(NC(=O)Nc2ccccc2)n1 | 7.34 | 
40 | COc1ccc(Br)cc1CNC(=O)Nc1cccs1 | 1.75 | 
41 | Cc1ccc(NC(=O)COC(=O)/C=C/c2ccco2)cc1S(=O)(=O)N(C)C | 30 | 
42 | Cc1ccc(NC(=O)CN2c3cccc4cccc(c34)S2(=O)=O)cc1S(=O)(=O)N1CCOCC1 | 2.23 | 
43 | O=C(Nc1ccc(F)c(F)c1)NC1CCCCC1 | 8.55 | 
44 | CCCSc1nnc(Nc2ccccc2C)s1 | 30 | 
45 | Cc1ccc(Cl)cc1NC(=S)NCc1cccn1C | 16.2 | 
46 | O=C(NNC(=O)c1cccs1)Nc1cccc(Cl)c1 | 11.2 | 

Row | SMILES | EC50 [µM] | activation, % of glutamate
47 | CC(=O)c1sc(NC(=O)c2cc(-c3ccccc3)nn2-c2ccccc2)nc1C | 0.884 | 
48 | CCCn1c(C)cc(/C=C(\C#N)C(=O)OCC(=O)Nc2cccc(OC)c2)c1C | 30 | 
49 | CC1CC(C)CN(C(=S)Nc2ccc(SC(F)F)cc2)C1 (configuration not stated) | 10.6 | 
50 | COc1cccc(NC(=O)Cn2cc(C#N)c3ccccc32)c1 | 1.65 | 
51 | Cc1cc(NC(=O)Nc2ccccc2)n(-c2ccccc2)n1 | 3.76 | 
52 | CSc1ccccc1NC(=O)Nc1ccc(Cl)cc1 |  | inactive
53 | O=C(Cc1ccccc1)N/N=C/c1cccn1-c1ccc([N+](=O)[O-])cc1 | 1.42 | 
54 | Cc1ccc(NC(=O)COC(=O)CCC(=O)c2ccc(Cl)cc2)cc1S(=O)(=O)N(C)C | 30 | 
55 | O=C(/C=C/c1ccccc1)NC(NC(=S)Nc1cccc(Cl)c1)C(Cl)(Cl)Cl (configuration not stated) | 5.91 | 
56 | NC(=O)SCC(=O)Nc1ccc(Cl)cc1 | 4.2 | 
57 | CCOC(=O)C(Cc1ccccc1)NC(=O)Cn1nnc(-c2ccccc2)n1 (configuration not stated) | 30 | 
58 | CCOCc1c(C(=O)OCC(=O)Nc2ccc(C)c(S(=O)(=O)N(C)C)c2)oc2ccccc12 | 30 | 
59 | Cc1ccc(NC(=O)Cc2ccccc2Cl)cc1S(=O)(=O)N(C)C | 2.62 | 
60 | CN(C)S(=O)(=O)N(CC(=O)Nc1ccc2ccccc2c1)c1ccccc1 | 7.2 | 
61 | COc1c(Cl)cc(Cl)cc1CNCCNCC(C)O (configuration not stated) | 0.497 | 
62 | O=C(Nc1ccc(Cl)cc1)Nc1nccs1 | 3.65 | 
63 | COc1ccc(C2CC(c3ccc(Cl)c(Cl)c3)Nc3nc(N)nn32)cc1 (configuration not stated) | 2.41 | 
64 | COc1cccc(NC(=O)CC2COc3ccccc3O2)c1 (configuration not stated) | 30 | 
65 | C=C(C)C1CC=C(C)/C(=N/NC(=O)COc2cccc(C)c2)C1 (configuration not stated) | 8.94 | 
66 | CC(Sc1nnnn1C)C(=O)Nc1ccc(Oc2ccccc2)cc1 (configuration not stated) | 30 | 
67 | CCOc1ccc(NC(=O)NC23CC4CC(CC(C4)C2)C3)cc1 | 1.48 | 
